The source made the active and inactive calls. The calls are words filed in the database; no cut-off is given here.

The subject of data set [1] is Rattus norvegicus. Briefly: Upregulation of ACh level in scopolamine-induced male Wistar rat brain hippocampus preadministered with compound orally for 30 mins starting from 7 th day trail followed by scopolamine administration and measured after 5 mins by GENELISA
It is filed as functional, tissue-based. The following applies: dose 2.5-10 mg/kg, route po, time 35.0 min.

The target in data set [2] is Amyloid-beta precursor protein (Homo sapiens) (UniProt P05067). Description: Inhibition of amyloid beta (1 to 42) (unknown origin) aggregation assessed as reduction in amyloid-beta aggregates at 50 uM incubated for 48 hrs by TEM analysis.
A short description of data set [3]: MRT in male Wistar rat at 10 mg/kg, po measured after 72 hrs by HPLC analysis. It is filed as ADME, organism-based. The following applies: in vivo.
A short description of data set [4]: Toxicity in wildtype Oregon R-positive Drosophila assessed as cell viability in gut at 10 uM by MTT assay relative to control. In kind it is tissue-based. The following applies: read-out: Activity.
Data set [5] in a line: Half-life in male Wistar rat at 10 mg/kg, po measured after 72 hrs by HPLC analysis. It is filed as ADME, organism-based. The following applies: in vivo.
Data set [6] deals with Hippocampus. Briefly: Reversal of scopolamine-induced oxidative stress in male Wistar rat brain hippocampus assessed as increase in GSH level preadministered orally with compound for 30 mins starting from 7 th day trail followed by scopolamine administration and measured after 5 mins. It is filed as functional, tissue-based. The following applies: dose 2.5-10 mg/kg, route po, time 35.0 min.

Data set [7] has as its system SH-SY5Y. Description: Neuroprotective activity against amyloid-beta(1 to 42) induced oxidative stress in differentiated human SH-SY5Y cells assessed as increase in cell viability at 40 uM preincubated with amyloid-beta (1 to 42 ) for 24 hrs followed by compound addition and measured after 48 hrs by MTT assay relative to control. In kind it is functional.
The nature of data set [8]: Toxicity in wildtype Oregon R-positive Drosophila assessed as cell viability in gut at 5 uM by MTT assay relative to control. The following applies: read-out: Activity. In kind it is tissue-based.
Data set [9] is described as follows: Toxicity in wildtype Oregon R-positive Drosophila assessed as cell viability in gut at 50 uM by MTT assay relative to control. The following applies: read-out: Activity. It is filed as tissue-based.
The nature of data set [10]: Total AUC in male Wistar rat at 10 mg/kg, po measured after 72 hrs by HPLC analysis. In kind it is ADME, organism-based. The following applies: in vivo.
In data set [11] the target is Amyloid-beta precursor protein (Homo sapiens) (UniProt P05067). Briefly: Inhibition of amyloid beta (1 to 42) (unknown origin) aggregation assessed as appearance of thinner aggregates at 50 uM incubated for 48 hrs by TEM imaging analysis.
Data set [12] is described as follows: Tmax in male Wistar rat at 10 mg/kg, po measured after 72 hrs by HPLC analysis. In kind it is ADME, organism-based. The following applies: in vivo.
In data set [13] the test system is Rattus norvegicus. Briefly: Antialzheimer activity against scopolamine-induced amnesia in male Wistar rat model assessed as restoration of memory function by measuring percentage spontaneous alteration at 2.5 to 10 mg/kg, po preadministered with compound for 30 mins starting from 7 th day trail followed by scopolamine administration and measured after 5 mins by Y maze test. The following applies: dose 2.5-10 mg/kg, time 35.0 min. In kind it is functional, organism-based.

Chain of Amyloid-beta precursor protein (Homo sapiens) (P05067 whole entry): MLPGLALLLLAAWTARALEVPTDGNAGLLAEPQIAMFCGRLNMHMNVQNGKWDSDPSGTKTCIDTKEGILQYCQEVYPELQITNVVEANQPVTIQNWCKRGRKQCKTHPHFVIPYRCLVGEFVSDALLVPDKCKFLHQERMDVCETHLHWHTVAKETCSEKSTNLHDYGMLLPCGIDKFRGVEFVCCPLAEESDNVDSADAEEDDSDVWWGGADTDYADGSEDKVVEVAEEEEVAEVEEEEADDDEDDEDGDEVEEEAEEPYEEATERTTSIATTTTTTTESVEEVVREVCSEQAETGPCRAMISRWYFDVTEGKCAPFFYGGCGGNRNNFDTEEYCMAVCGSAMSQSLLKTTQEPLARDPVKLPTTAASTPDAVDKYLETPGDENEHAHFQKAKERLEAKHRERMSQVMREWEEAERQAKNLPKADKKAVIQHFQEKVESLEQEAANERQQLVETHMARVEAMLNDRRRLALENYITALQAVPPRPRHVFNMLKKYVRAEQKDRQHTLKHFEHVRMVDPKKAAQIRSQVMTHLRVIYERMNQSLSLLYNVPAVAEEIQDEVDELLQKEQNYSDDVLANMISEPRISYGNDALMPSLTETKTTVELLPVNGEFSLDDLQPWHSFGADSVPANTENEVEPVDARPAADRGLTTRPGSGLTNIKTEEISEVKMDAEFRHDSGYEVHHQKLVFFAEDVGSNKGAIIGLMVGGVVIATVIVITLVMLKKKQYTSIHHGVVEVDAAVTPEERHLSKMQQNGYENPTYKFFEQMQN

Take `COc1cc(NC(=O)Cn2nc(-c3ccccc3)c(-c3ccccc3)nc2=O)cc(OC)c1`: the results for the Activity result in [1], in data set [6] and in [7] were “Dose-Dependent Effect”, “Dose-Dependent Effect” and 72%, respectively. For the same compound, the inhibition entry in [2] and in [11] was “Active” in each case. In data set [3], this compound displayed an MRT of 32 h. Besides, the viability at 10 µM in data set [4] is 78%. Moreover, the half-life in data set [5] is 41 h. Moreover, the viability at 5 µM in [8] stood at 97%. Also, the viability at 50 µM in data set [9] came out at 38%. The exposure (AUC) at 72 h in data set [10] was found to be 1.74 µg·h/mL. Also, the Tmax in [12] came out at 9 h. Besides, the result in data set [13] was Active.
